Each compound was assayed on HCV genotype 1a replicon (assay: HCV genotype 1a replicon assay (NS3 protease activity readout)). Settings: HCV genotype 1a replicon.
Assay type: cell-based, hepatitis C virus
Description: Assay 2: HCV Genotype 1a Replicon Assay
The HCV genotype 1a replicon cell line was obtained from Apath LLC (APC89; Huh7.5 cell background). This subgenomic replicon contains the N-terminus of the HCV core protein fused to the neomycin-resistance selectable marker. The EMCV IRES lies downstream and drives expression of the non-structural proteins NS3-NS5B. Compound potencies were determined using the NS3-specific protease activity in lysates as a measurement of compound inhibition of replicon levels.
Cells were grown at 37° C. in a 5% CO2 humidified incubator in DMEM (Invitrogen) with 10% FBS (HyClone), 1×NEAA (Invitrogen), 1× Pen-Strep (Invitrogen), and 850 μg/mL G418 (Invitrogen). On day 1 of the assay, cells were plated at 15,000 cells/well in black 96-well tissue culture plates (Costar) in 200 μL media lacking G418. Four hours later, once the cells had adhered, the media was removed and replaced with media (no G418) containing dose-responses of test compounds. Compounds were initially diluted in DMSO and then diluted another 200× in media to bring the final DMSO concentration down to 0.5%. The cells were incubated with test compounds for 48 or 72 hours. At the end of the incubation period, media and compound were removed from the plates.
To determine the NS3-specific protease activity in lysates, the cells were lysed at room temperature in 50 μL/well of 50 mM Hepes pH 7.5, 150 mM NaCl, 15% Glycerol, 0.15% Triton X-100, 10 mM DTT for 20 minutes with shaking. 50 μL of an NS3/4a protease-specific FRET substrate (Anaspec RET S1 Cat#22991) was then added to the wells at a final concentration of 15 μM. The plates were incubated at 37° C. for 20 minutes, which corresponds to a timepoint at which the protease activity is still in the linear phase. Protease activity was determined by measuring fluorescence (Excitation: 340 nm; Emission: 509 nm).
To analyze the data, the fluorescence was plotted vs. the compound concentration, and EC50 values were determined from a 4-parameter robust fit model using GraphPad Prism software.
With COC(=O)N[C@H](C(=O)N1C[C@@H](C)C[C@H]1c1nc(-c2ccc(-c3cc(Cl)c(NC(=O)c4ccc(N5CCN(C(=O)[C@@H]6CCN6C(C)C)C[C@H]5C)nc4)cc3OC(F)(F)F)cc2)c[nH]1)C(C)C [Example 1-85] the “Genotype 1a” value was “B (B represents pEC50 between 8 and 9 (EC50 between 1 and 10 nM))”.
In the case of CC[C@@H](C)C(=O)N1CCN(c2ccc(C(=O)Nc3cc(OC(F)(F)F)c(-c4ccc(-c5c[nH]c([C@@H]6C[C@H](C)CN6C(=O)[C@@H](NC(=O)OC)C(C)C)n5)cc4)cc3Cl)cn2)[C@H](C)C1 [Example 1-86], the “Genotype 1a” value is reported as “D (D represents pEC50>10 (EC50<0.1 nM))”.
In the case of COC(=O)N[C@H](C(=O)N1C[C@@H](C)C[C@H]1c1nc(-c2ccc(-c3cc(Cl)c(NC(=O)c4ccc(N5CCN(C(=O)C6CC67CC7)C[C@H]5C)nc4)cc3OC(F)(F)F)cc2)c[nH]1)C(C)C (some centres unmarked) [Example 1-87], the “Genotype 1a” value is reported as “D (D represents pEC50>10 (EC50<0.1 nM))”.
COC(=O)N[C@H](C(=O)N1C[C@@H](C)C[C@H]1c1nc(-c2ccc(-c3cc(F)c(NC(=O)c4ccc(N5CCN(C(=O)C6CC67CC7)C[C@H]5C)nc4)cc3OC(F)(F)F)cc2)c[nH]1)C(C)C (some centres unmarked) [Example 1-88] was tested, and the “Genotype 1a” value was “D (D represents pEC50>10 (EC50<0.1 nM))”.
COC(=O)N[C@H](C(=O)N1C[C@@H](C)C[C@H]1c1nc(-c2ccc(-c3cc(Cl)c(NC(=O)c4ccc(N5CCN(C(=O)C6CC67CC7)C[C@H]5C)nc4)cc3C(F)(F)F)cc2)c[nH]1)C(C)C (some centres unmarked) [Example 1-89] was tested, and the “Genotype 1a” value was “D (D represents pEC50>10 (EC50<0.1 nM))”.
COC(=O)N[C@H](C(=O)N1C[C@@H](C)C[C@H]1c1nc(-c2ccc(-c3cc(F)c(NC(=O)c4ccc(N5CCN(C(=O)C6CC67CC7)C[C@H]5C)nc4)cc3F)cc2)c[nH]1)C(C)C (some centres unmarked) [Example 1-90] was tested, and the “Genotype 1a” value was “C (C represents pEC50 between and 9 and about 10, (EC50 between 1 nM and 0.1 nM))”.
COC(=O)N[C@H](C(=O)N1C[C@@H](C)C[C@H]1c1nc(-c2ccc(-c3cc(Cl)c(NC(=O)c4ccc(N5CCN(C(=O)C6CCC6C)C[C@H]5C)nc4)cc3OC(F)(F)F)cc2)c[nH]1)C(C)C (some centres unmarked) [Example 1-91] was tested, and the “Genotype 1a” value was “D (D represents pEC50>10 (EC50<0.1 nM))”.
With COC(=O)N[C@H](C(=O)N1C[C@@H](C)C[C@H]1c1nc(-c2ccc(-c3cc(Cl)c(NC(=O)c4ccc(N5CCN(C(=O)NN(C)C)C[C@H]5C)nc4)cc3OC(F)(F)F)cc2)c[nH]1)C(C)C [Example 1-94] the “Genotype 1a” value was “D (D represents pEC50>10 (EC50<0.1 nM))”.
For COC(=O)N[C@H](C(=O)N1C[C@@H](C)C[C@H]1c1nc(-c2ccc(-c3cc(F)c(NC(=O)c4ccc(N5CCN(C(=O)NN(C)C)C[C@H]5C)nc4)cc3OC(F)(F)F)cc2)c[nH]1)C(C)C [Example 1-95], the “Genotype 1a” value was “C (C represents pEC50 between and 9 and about 10, (EC50 between 1 nM and 0.1 nM))”.
For COC(=O)N[C@H](C(=O)N1C[C@@H](C)C[C@H]1c1nc(-c2ccc(-c3cc(Cl)c(NC(=O)c4ccc(N5CCN(C(=O)C(O)C(F)(F)F)C[C@H]5C)nc4)cc3OC(F)(F)F)cc2)c[nH]1)C(C)C (some centres unmarked) [Example 1-97], the “Genotype 1a” value was “C (C represents pEC50 between and 9 and about 10, (EC50 between 1 nM and 0.1 nM))”.
For COC(=O)N[C@H](C(=O)N1C[C@@H](C)C[C@H]1c1nc(-c2ccc(-c3cc(Cl)c(NC(=O)c4ccc(N5CCN(C(=O)CC6CC6)C[C@H]5C)nc4)cc3OC(F)(F)F)cc2)c[nH]1)C(C)C [Example 1-98], the “Genotype 1a” value was “C (C represents pEC50 between and 9 and about 10, (EC50 between 1 nM and 0.1 nM))”.
With COC(=O)N[C@H](C(=O)N1C[C@@H](C)C[C@H]1c1nc(-c2ccc(-c3cc(Cl)c(NC(=O)c4ccc(N5CCN(C(=O)C6(C(F)(F)F)CC6)C[C@H]5C)nc4)cc3OC(F)(F)F)cc2)c[nH]1)C(C)C [Example 1-99] the “Genotype 1a” value was “D (D represents pEC50>10 (EC50<0.1 nM))”.
In the case of [2H]C([2H])([2H])C1(C([2H])([2H])[2H])CC1C(=O)N1CCN(c2ccc(C(=O)Nc3cc(Cl)c(-c4ccc(-c5c[nH]c([C@@H]6C[C@H](C)CN6C(=O)[C@@H](NC(=O)OC)C(C)C)n5)cc4)cc3F)cn2)[C@H](C)C1 (some centres unmarked) [Example 1-100], the “Genotype 1a” value is reported as “D (D represents pEC50>10 (EC50<0.1 nM))”.
In the case of COC(=O)N[C@H](C(=O)N1C[C@@H](N(C)C)C[C@H]1c1nc(-c2ccc(-c3ccc(NC(=O)c4ccc(N5CCN(C(=O)[C@H]6CC6(C)C)C[C@H]5C)nc4)cc3C)cc2)c[nH]1)C(C)C [Example 2-4], the “Genotype 1a” value is reported as “D (D represents pEC50>10 (EC50<0.1 nM))”.
In the case of COC(=O)N[C@H](C(=O)N1C[C@@H](N(C)C)C[C@H]1c1nc(-c2ccc(-c3cc(Cl)c(NC(=O)c4ccc(N5CCN(C(=O)[C@H]6CC6(C)C)C[C@H]5C)nc4)cc3OC(F)(F)F)cc2)c[nH]1)C(C)C [Example 2-6], the “Genotype 1a” value is reported as “D (D represents pEC50>10 (EC50<0.1 nM))”.
With COC(=O)N[C@H](C(=O)N1C[C@@H](N(C)C)C[C@H]1c1nc(-c2ccc(-c3cc(Cl)c(NC(=O)c4ccc(N5CCN(C(=O)C(C)(C)C)C[C@H]5C)nc4)cc3OC(F)(F)F)cc2)c[nH]1)C(C)C [Example 2-7] the “Genotype 1a” value was “C (C represents pEC50 between and 9 and about 10, (EC50 between 1 nM and 0.1 nM))”.
In the case of COC(=O)N[C@H](C(=O)N1C[C@@H](N(C)C)C[C@H]1c1nc(-c2ccc(-c3cc(Cl)c(NC(=O)c4ccc(N5CCN(C(=O)[C@H]6CC6(C)C)C[C@H]5C)nc4)cc3OC(F)(F)F)cc2)c(Cl)[nH]1)C(C)C [Example 2-8], the “Genotype 1a” value is reported as “D (D represents pEC50>10 (EC50<0.1 nM))”.
For COC(=O)N[C@H](C(=O)N1CC(C)(C)C[C@H]1c1nc(-c2ccc(-c3cc(F)c(NC(=O)c4ccc(N5CCN(C(=O)[C@]6(C)CCCN6C(=O)[C@@H](NC(=O)OC)C(C)C)C[C@H]5C)nc4)cc3C(F)(F)F)cc2)c[nH]1)C(C)C [Example 3-2], the “Genotype 1a” value was “D (D represents pEC50>10 (EC50<0.1 nM))”.
In the case of COC(=O)N[C@H](C(=O)N1C[C@@H](C)C[C@H]1c1nc(-c2ccc(-c3ccc(C(=O)Nc4ccc(N5CCN(C(=O)[C@]6(C)CCCN6C(=O)[C@@H](NC(=O)OC)C(C)C)C[C@H]5C)nc4)cc3OC(F)(F)F)cc2)c[nH]1)C(C)C [Example 4-3], the “Genotype 1a” value is reported as “D (D represents pEC50>10 (EC50<0.1 nM))”.
For CNC(=O)N1CCC[C@@]1(C)C(=O)N1C[C@@H](C)N(c2ccc(NC(=O)c3ccc(-c4ccc(-c5c[nH]c([C@@H]6C[C@H](C)CN6C(=O)[C@@H](NC(=O)OC)C(C)C)n5)cc4)c(OC(F)(F)F)c3)cn2)C[C@@H]1C [Example 4-9], the “Genotype 1a” value was “D (D represents pEC50>10 (EC50<0.1 nM))”.
In the case of COC(=O)N[C@H](C(=O)N1C[C@@H](C)C[C@H]1c1nc(-c2ccc(-c3ccc(C(=O)Nc4ccc(N5C[C@H](C)N(C(=O)C6CC6C)C[C@H]5C)nc4)cc3OC(F)(F)F)cc2)c(Cl)[nH]1)C(C)C (some centres unmarked) [Example 4-13], the “Genotype 1a” value is reported as “C (C represents pEC50 between and 9 and about 10, (EC50 between 1 nM and 0.1 nM))”.
COC(=O)N[C@H](C(=O)N1C[C@@H](C)C[C@H]1c1nc(-c2ccc(-c3ccc(C(=O)Nc4ccc(N5C[C@H](C)N(C(=O)C(C)(C)C)C[C@H]5C)nc4)cc3OC(F)(F)F)cc2)c[nH]1)C(C)C [Example 4-15] was tested, and the “Genotype 1a” value was “D (D represents pEC50>10 (EC50<0.1 nM))”.
COC(=O)N[C@H](C(=O)N1C[C@@H](C)C[C@H]1c1nc(-c2ccc(-c3ccc(C(=O)Nc4ccc(N5C[C@H](C)N(C(=O)C6CC6(F)F)C[C@H]5C)nc4)cc3OC(F)(F)F)cc2)c[nH]1)C(C)C (some centres unmarked) [Example 4-22] was tested, and the “Genotype 1a” value was “C (C represents pEC50 between and 9 and about 10, (EC50 between 1 nM and 0.1 nM))”.
In the case of COC(=O)N[C@H](C(=O)N1C[C@@H](C)C[C@H]1c1nc(-c2ccc(-c3ccc(C(=O)Nc4ccc(N5C[C@H](C)N(C(=O)C6CC6(Cl)Cl)C[C@H]5C)nc4)cc3OC(F)(F)F)cc2)c[nH]1)C(C)C (some centres unmarked) [Example 4-23], the “Genotype 1a” value is reported as “C (C represents pEC50 between and 9 and about 10, (EC50 between 1 nM and 0.1 nM))”.
COC(=O)N[C@H](C(=O)N1C[C@@H](C)C[C@H]1c1nc(-c2ccc(-c3ccc(C(=O)Nc4ccc(N5C[C@H](C)N(C(=O)NC6CC6)C[C@H]5C)nc4)cc3OC(F)(F)F)cc2)c[nH]1)C(C)C [Example 4-24] was tested, and the “Genotype 1a” value was “C (C represents pEC50 between and 9 and about 10, (EC50 between 1 nM and 0.1 nM))”.
In the case of COC(=O)N[C@H](C(=O)N1C[C@@H](C)C[C@H]1c1nc(-c2ccc(-c3ccc(C(=O)Nc4ccc(N5C[C@H](C)N(C(=O)NC(C)C)C[C@H]5C)nc4)cc3OC(F)(F)F)cc2)c[nH]1)C(C)C [Example 4-25], the “Genotype 1a” value is reported as “C (C represents pEC50 between and 9 and about 10, (EC50 between 1 nM and 0.1 nM))”.
In the case of COC(=O)N[C@H](C(=O)N1C[C@@H](C)C[C@H]1c1nc(-c2ccc(-c3ccc(C(=O)Nc4ccc(N5C[C@H](C)N(C(=O)C(C)(C)C)C[C@H]5C)nc4)cc3OC(F)(F)F)cc2)c(Cl)[nH]1)C(C)C [Example 4-26], the “Genotype 1a” value is reported as “D (D represents pEC50>10 (EC50<0.1 nM))”.

Same assay, conditions: Hepatitis C virus, read-out: Genotype 1a, HCV genotype 1a replicon
COC(=O)N[C@H](C(=O)N1CC(C)(C)C[C@H]1c1nc(-c2ccc(-c3cc(F)c(NC(=O)c4ccc(N5CCN(C(=O)C6CC6)C[C@H]5C)nc4)cc3C(F)(F)F)cc2)c[nH]1)C(C)C [Example 3-3] showed an EC50 of 0.1 to 1 nM.
For CNC(=O)N1CCN(c2ccc(C(=O)Nc3cc(C(F)(F)F)c(-c4ccc(-c5c[nH]c([C@@H]6CC(C)(C)CN6C(=O)[C@@H](NC(=O)OC)C(C)C)n5)cc4)cc3F)cn2)[C@H](C)C1 [Example 3-4], the EC50 was 0.1 to 1 nM.
